Laboratory results from patent US10335417B2, “Thiazideamide derivative and use thereof” (Institute of Pharmacology and Toxicology Academy of …, priority 2015, dated 2019).

Tests used:
[1] = tested on: chick embryo dorsal root ganglion; experiment: in vitro serum-free culture model of chick embryonic dorsal root ganglion: neurite growth score with NGF; assay type: cell-based; details: for Average score (growth of neurites of chick embryo dorsal root ganglion): 48 h, score 0-3, average of five ganglions, control 0.33
Procedure: The neurotrophic activity of the compounds according to the invention can be embodied in multiple in vitro biological models, such as in vitro serum-free culture model of chick embryonic dorsal root ganglion.
Experimental method: in a sterile environment, chick embryo, which had been incubated for 8 d, had the spinal and bilateral ganglion exposed under anatomical lens. Dorsal root ganglions were picked one by one using sharp forceps, and seeded in culture bottles spread with rat tail collagen, at a density of 5-6 ganglions per bottle, and two bottles for each dose. After attachment culture in a 37° C., 5% CO2 incubator for 1 h, serum-free medium DMEM containing nerve growth factor (NGF) (0.15 ng/mL), and the compound according to the invention were added. In the control group, only the medium and the same dose of NGF were added. After culture in the incubator for 48 h, the growth of neurite around dorsal root ganglion was observed under inverted phase contrast microscope, which was scored depending on the length and density of neurite.
Evaluation criteria: 0: no neurite; 1: rare long neurite; 2: relatively long or dense neurite; 3: long and dense neurite.

[2] = tested on: BCAO-LBP mice (incomplete global cerebral ischemia); experiment: mouse BCAO-LBP model of incomplete global cerebral ischemia: cerebral MDA content and neurological function score; assay type: in vivo, Kunmin mice; details: for Neurologic deficit score / MDA content: 30 mg/kg i.g. once/d for 3 d, x ± SEM; for Neurologic deficit score: behaviour within 6 h after ligation, model group 3.92, sham 0.00; for MDA content: whole cerebrum, model group 40.94, sham 33.15
Excerpt: In the Example, Kunmin mice were used as experimental subjects, intragastric (i.g.) administration was used, mouse BCAO-LBP (bilateral carotid artery occlusion with low blood pressure) model was used, and by determining neurological function score and the cerebral malondialdehyde (MDA) content in mice, the compounds were investigated for their protective effects on incomplete global cerebral ischemia in mice when administered prophylactically.
2.1.2 Preparation of a drug for intragastric administration: the compound was prepared to a 1.5 mg/ml solution using 0.7% CMC-Na solution.
28 mice, which had adapted to the laboratory environment for 1 week, were evenly grouped depending on body weight. The mice were intragastrically administered with 0.7% CMC-Na or one of the compounds, once/d, for 3 d. The groups were as followed:
Administration group: 12 mice, intragastrically administered at a dose of 0.2 ml/10 g, i.e., the dose of the compound was 30 mg/kg.
2.3.1 Mouse bilateral carotid artery ligation: 1 h after the last administration, the mice were subjected to orbital bloodletting to reduce blood pressure (which was about 30% of the total blood volume of the mice), and then fixed in supine position on the operating table, and cut in the middle of neck. Carotid artery was subjected to blunt dissection, and 2 lines were used in ligation for each side. The time counting started after the ligation with the third line, the carotid artery was cut off between the two lines, and the incision was sewn up. In the Sham-operated group, the carotid artery was only separated without ligation. After the operation, the mice were unfixed quickly, and the mice were observed and recorded for the behaviors within 6 h (scoring depending on the following table using blind method) and the death time. The brains were taken quickly after the mice died, the cerebellums were removed, and the MDA content in the whole cerebrum was determined by thiobarbituric acid (TBA).
The cerebra of mice were taken and weighed, and were prepared into 15% brain homogenate using N.S. 1.2 ml brain homogenate was placed in a 37° C. water bath for 1 h (shaking once every 10 min) and then taken out. 20% trichloroacetic acid 0.6 ml was added, and the mixture was mixed well, and was on standing for 10 min. After centrifugation at 2000 rpm for 10 min, to 1.2 ml supernatant, 0.67% TBA 0.6 ml was added. The mixture was placed in a boiling water bath for 10 min, and was taken out for cooling, and the OD value at a wavelength of 532 nm was determined.
The experimental data was expressed as x±SEM; SPSS 13.0 statistic software was used. Homogeneity or heterogeneity of variance was determined by one-factor analysis of variance. In the case of homogeneity of variance, LSD test was used; in the case of heterogeneity of variance, Dunnett's T3 test was used. Significant difference among different groups was compared, and P<0.05 indicated statistical significance.

MDCK-MDR1 cells = experiment: in vitro; details: MDCK-MDR1
Excerpt: (§1) MDCK-MDR1 cells were monolayer cells which highly express P-gp transporter after transfection of MDCK (Madin-Darby canine kidney epithelial cell) with MDR1 gene. Due to its density and high expression of efflux protein, the monolayer has similarity compared to blood-brain barrier (BBB) structure and now can be used as one of models for evaluating the ability of passing through BBB. In the invention, MDCK-MDR1 cells were used to study the membrane permeability of the compounds according to the invention, and to primarily evaluate its ability of passing through BBB.
(§2) The frozen MDCK-MDR1 cells were quickly thawed in a 37° C. water bath. To the resuscitated cells, DMEM medium containing 10% FBS was added, and the cells were cultured in an incubator at 37° C., 5% CO2, and a relative humidity of 90%. The medium was changed every other day. After fusion of the cells growing for 1-2 days, the cells were digested with 0.25% trypsin-EDTA (0.2%) mixed digestion solution at 37° C., and were sub-cultured at a certain ratio. The cells for use in experiment were those passaged for 40-60 generations.
(§3) When the cell fusion degree reached 80%, the cells were digested and then suspended in complete medium, and seeded to Millicell plate at 1×10^6 cells·mL^−1. The medium was changed every other day, and 1 week later, the medium was changed every day. After culturing for 5 days, the resistance value reached a constant value (>200 Ω·cm^2), and the cells could be used in the transport experiment.
(§4) After washing with 37° C. HBSS twice, the cells were incubated in a 37° C. culture incubator, wherein Rho-123 was added to the upper wells, and HBSS was added to the bottom wells. The incubation was carried out in a constant temperature shaker, and the solutions from the bottom wells were collected at each time point (0 min, 30 min, 90 min, 120 min), and stored at −20° C. for further use. The amount of Rho-123 permeated to the bottom well was determined by fluorospectrophotometer, wherein the emission wavelength was […], and the excitation wavelength was 530 nm.
(§5) The permeability from cavity-surface to basal surface: drug-containing HBSS 0.35 mL was add to Apical (AP), and blank HBSS 1.2 mL was added to Basolateral (BL). The Millicell was placed at 37° C. in a shaker under shaking at 50 r·min^−1, 50 μL sample was collected from the bottom well at 0, 30, 90, 120 min, respectively, and the same volume of blank HBSS was supplemented. 3 wells were set for each concentration, and to the sample, an internal standard solution (50 μL) and ethyl acetate (350 μL) were added precisely. The mixture was mixed homogeneously under shaking, and centrifuged at 12000 rmp for 5 min. The supernatant (300 μL) was volatilized to dryness, and re-dissolved in 50 μL acetonitrile. The 10 μL resultant solution was used for determination.
(§6) The permeability from basal surface to cavity surface: the drug is added to Basolateral (BL), and blank HBSS was added to Apical (AP), and the other steps were the same as those of the experiment for determining the permeability from cavity-surface to basal surface.
(§7) The apparent permeability coefficient (Papp) of a drug reflects the ability of the drug to pass through cell monolayer and the drug absorption rate and extent. It can be calculated in accordance with the following equation: […]
(§8) wherein, Q represents the amount of drug permeated in the t period, A represents cell surface area, and represents the area (0.6 cm^2) of supporting film in this model, and C0 represents an initial concentration. The unit of Papp is expressed as cm·s^−1.
(§9) By measurement using LC/MS, the concentration of each sample was quantitated using its standard curve (50 nM-10000 nM).

in vitro = details: dog, MDCK-MDR1
Excerpt: as §1, §2, §3, §4, §5, §6, §7, §8, §9

[3] = compound 100 pM + NGF 0.15 ng/mL

Compound	Papp (apparent permeability coefficient) (MDCK-MDR1 cells) [×10⁻⁶ cm/s]	Papp at 120 min (in vitro) [×10⁻⁶ cm/s]	Average score (growth of neurites of chick embryo dorsal root ganglion) ([1]; compound 1 pM + NGF 0.15 ng/mL)	Average score (growth of neurites of chick embryo dorsal root ganglion) [1, 3]	Neurologic deficit score [2]	MDA content [2] [nmol/g]	neurologic deficit score decreased compared to the group administered with Compound 5 ([2]; 30 mg/kg i.g., BCAO-LBP mice)	neurologic deficit score decreased compared to the group administered with Compound 6 ([2]; 30 mg/kg i.g., BCAO-LBP mice) [%]	neurotrophic activity increased compared to Compound 6 ([1]; dose 1 pM) [%]	neurotrophic activity increased compared to Compound 6 ([1]; dose 100 pM) [%]
CCC(C)[C@H](NC(=O)[C@@H]1CSCCN1S(=O)(=O)c1ccc(C)cc1)C(=O)OC(C)(C)C (stereo partly drawn) [Compound 9, (2S,3R)-tert-butyl-3-methyl-2((R)-(4-methylphenyl)sulfonyltetrahydro-1,4-thiazin-3-aminoformyl)valerate]		12.4	1.76	2.56	2.37 ± 0.31	33.29 ± 1.81	about 35%			
Cc1ccc(S(=O)(=O)N2CCSC[C@H]2C(=O)N[C@H](C(=O)OCc2ccccc2)C(C)C)cc1 [Compound 11, (S)-benzyl-3-methyl-2((R)-(4-methylphenyl)sulfonyltetrahydro-1,4-thiazin-3-aminoformyl)butyrate]		15.6	1.86	2.65	3.66 ± 0.31	32.57 ± 0.75				
Cc1ccc(S(=O)(=O)N2CCSC[C@H]2C(=O)N[C@@H](Cc2ccccc2)C(=O)OCc2ccccc2)cc1 [Compound 18, (S)-benzyl-3-phenyl-2((R)-(4-methylphenyl)sulfonyltetrahydro-1,4-thiazin-3-aminoformyl)propionate]		28.5	1.66	2.68	2.65 ± 0.31	32.66 ± 0.93	~27%			
Cc1ccc(S(=O)(=O)N2CCSC[C@H]2C(=O)N[C@H](Cc2ccccc2)C(=O)OC(C)(C)C)cc1 [Compound 20, (R)-tert-butyl-3-phenyl-2((R)-(4-methylphenyl)sulfonyltetrahydro-1,4-thiazin-3-aminoformyl)propionate]		18.8	2.10	3.32	3.76 ± 0.31	34.90 ± 1.65			25	30
CCOC(=O)[C@H](CCc1ccccc1)NC(=O)[C@@H]1CSCCN1S(=O)(=O)c1ccc(C)cc1 [Compound 22, (S)-ethyl-4-phenyl-2((R)-(4-methylphenyl)sulfonyltetrahydro-1,4-thiazin-3-aminoformyl)butyrate]		40.6	1.88	2.78	3.08 ± 0.40	33.27 ± 1.61	about 15%			

Further lines, with some results ahead:

Papp (apparent permeability coefficient) (MDCK-MDR1 cells) [×10⁻⁶ cm/s]	Papp at 120 min (in vitro) [×10⁻⁶ cm/s]	Compound	Average score (growth of neurites of chick embryo dorsal root ganglion) ([1]; compound 1 pM + NGF 0.15 ng/mL)	Average score (growth of neurites of chick embryo dorsal root ganglion) [1, 3]	Neurologic deficit score [2]	MDA content [2] [nmol/g]	neurologic deficit score decreased compared to the group administered with Compound 5 ([2]; 30 mg/kg i.g., BCAO-LBP mice)	neurologic deficit score decreased compared to the group administered with Compound 6 ([2]; 30 mg/kg i.g., BCAO-LBP mice) [%]	neurotrophic activity increased compared to Compound 6 ([1]; dose 1 pM) [%]	neurotrophic activity increased compared to Compound 6 ([1]; dose 100 pM) [%]
8.38		CCOC(=O)[C@H](CC(C)C)NC(=O)[C@@H]1CSCCN1S(=O)(=O)c1ccc(C)cc1 [Compound 5, (3R)-4-[(4-methylbenzenesulfonyl)]-1,4-thiazin-3-carbonyl-L-leucine ethyl ester, reference compound]	0.65	1.55	3.62 ± 0.31	36.09 ± 1.85				
39.5		Cc1ccc(S(=O)(=O)N2CCSC[C@H]2C(=O)N[C@H](CC(C)C)C(=O)OC(C)C)cc1 [Compound 6, (3R)-4-[(4-methylbenzenesulfonyl)]-1,4-thiazin-3-carbonyl-D-leucine isopropyl ester, reference compound]	1.68	2.55	2.08 ± 0.40	32.87 ± 0.95				
	18.9	CCOC(=O)[C@@H](NC(=O)[C@@H]1CSCCN1S(=O)(=O)c1ccc(C)cc1)C(C)C [Compound 13, (S)-ethyl-3-methyl-2((R)-(4-methylphenyl)sulfonyltetrahydro-1,4-thiazin-3-aminoformyl)butyrate]	1.96	2.88	2.47 ± 0.40	33.90 ± 1.45	~32%			
	40.8	Cc1ccc(S(=O)(=O)N2CCSC[C@H]2C(=O)N[C@@H](C(=O)OC(C)(C)C)C(C)C)cc1 [Compound 15, (R)-tert-butyl-3-methyl-2((R)-(4-methylphenyl)sulfonyltetrahydro-1,4-thiazin-3-aminoformyl)butyrate]	1.78	2.68	1.91 ± 0.28	33.77 ± 1.61		~8		
